The text below walks through data of US8501713B2, “Drug combinations for the treatment of duchenne muscular dystrophy” (Summit Corporation PLC, priority 2007, dated 2013).

The first test has as its system Utrophin A promoter linked to a luciferase reporter gene. Briefly: Luciferase reporter assay (murine H2K cells). Type of test: cell-based. The settings on record: Mus musculus, H2K mdx, luciferase level relative to control; H2K/mdx/Utro A reporter cells; compound 10 μM final concentration; read-out: Activity. The gist of the method: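 Immortalized mdx mouse H2K myoblasts stably carrying a ~5 kb utrophin A promoter–luciferase construct, kept at 33° C, 10% CO2. After 24 hrs plating, compound added at 10 μM final for 48 hrs; luciferase light output read after in-situ lysis.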
In general terms: A reporter such as luciferase makes a cellular process visible.
Turning to `O=C(Nc1ccc(-c2nc3ccc(Cl)cc3o2)cc1)c1cccs1` [Example 334, N-(4-(6-chlorobenzo[d]oxazol-2-yl)phenyl)thiophene-2-carboxamide], the activity at 10 µM was under 200%.

For the molecule `Nc1ccc2oc(-c3cccc(C(F)(F)F)c3)nc2c1` [Example 174, 2-(3-(trifluoromethyl)phenyl)benzo[d]oxazol-5-amine], the activity at 10 µM was under 200%.

Take `COc1ccc2cc(-c3nc4cc(N)ccc4o3)ccc2c1` [Example 404, 2-(6-methoxynaphthalen-2-yl)benzo[d]oxazol-5-amine]: the activity at 10 µM is 201 to 300%.

With `CC(=O)Nc1ccc2oc(-c3ccccc3)nc2c1` [Example 8, N-(2-phenylbenzo[d]oxazol-5-yl)acetamide], the activity at 10 µM lay in the range of 201 to 300%.

Regarding `O=C(CC(F)(F)F)Nc1ccc2oc(-c3ccc(Cl)cc3)nc2c1` [Example 345, N-(2-(4-chlorophenyl)benzo[d]oxazol-5-yl)-3,3,3-trifluoropropanamide], the activity at 10 µM lay in the range of 301 to 400%.

Take `Nc1ccc2sc(-c3ccccc3Cl)nc2c1` [Example 282, 2-(2-chlorophenyl)benzo[d]thiazol-5-amine]: the activity at 10 µM was over 401%.

For `O=C(Nc1ccc2oc(-c3ccc(Cl)cc3)nc2c1)c1ccncc1` [Example 87, N-(2-(4-chlorophenyl)benzo[d]oxazol-5-yl)isonicotinamide], the activity at 10 µM was under 200%.

As to `CC(C)C(=O)Nc1ccc2oc(-c3cccc(Cl)c3F)nc2c1` [Example 342, N-(2-(3-chloro-2-fluorophenyl)benzo[d]oxazol-5-yl)isobutyramide], the activity at 10 µM was over 401%.

Take `Cc1ccc(C(=O)Nc2ccc3oc(-c4ccccc4)nc3c2)cc1` [Example 24, 4-methyl-N-(2-phenylbenzo[d]oxazol-5-yl)benzamide]: the activity at 10 µM is under 200%.

Consider `Cc1ccc(-c2nc3c(N)cccc3o2)cc1` [Example 234, 2-p-tolylbenzo[d]oxazol-4-amine], for which the activity at 10 µM lay in the range of 301 to 400%.

In the case of `CC(C)C(=O)Nc1ccc2oc(-c3ccc(C(F)(F)F)cc3)nc2c1` [Example 127, N-(2-(4-(trifluoromethyl)phenyl)benzo[d]oxazol-5-yl)isobutyramide], the activity at 10 µM is under 200%.

With `CCCC(=O)Nc1ccc2oc(-c3cccc(F)c3)nc2c1` [Example 244, N-(2-(3-fluorophenyl)benzo[d]oxazol-5-yl)butyramide], the activity at 10 µM was over 401%.

For the molecule `CC(C)C(=O)Nc1ccc2sc(-c3ccccc3)nc2c1` [Example 267, N-(2-phenylbenzo[d]thiazol-5-yl)isobutyramide], the activity at 10 µM was over 401%.

As to `CSc1ccc2nc(-c3ccc(Cl)cc3)sc2c1` [Example 399, 2-(4-chlorophenyl)-6-(methylthio)benzo[d]thiazole], the activity at 10 µM was in the range of 301 to 400%.

As for `CC(O)c1ccc2oc(-c3ccc(Cl)cc3)nc2c1` (stereo not drawn) [Example 446, 2-(4′-chlorophenyl)-5-(1′-hydroxyethyl)-benzoxazole], the activity at 10 µM is over 401%.

In the case of `O=C(Nc1ccc2oc(-c3ccc(F)cc3)nc2c1)c1ccco1` [Example 2, N-(2-(4-fluorophenyl)benzo[d]oxazol-5-yl)furan-2-carboxamide], the activity at 10 µM is under 200%.

Take `CCS(=O)(=O)c1ccc2oc(-c3ccc(Cl)cn3)nc2c1` [Example 393, 2-(5-chloropyridin-2-yl)-5-(ethylsulfonyl)benzo[d]oxazole]: the activity at 10 µM fell in the range of 201 to 300%.

`CC(=O)Nc1ccc(-c2nc3cc(Cl)ccc3o2)cc1` [Example 317, N-(4-(5-chlorobenzo[d]oxazol-2-yl)phenyl)acetamide]: the activity at 10 µM is 301 to 400%.

`CC(C)C(=O)Nc1ccc2oc(C3CCCC3)nc2c1` [Example 364, N-(2-cyclopentylbenzo[d]oxazol-5-yl)isobutyramide]: the activity at 10 µM was under 200%.

In the case of `CS(=O)(=O)c1ccc2nc(-c3ccc(Cl)cc3)sc2c1` [Example 406, 2-(4-chlorophenyl)-6-(methylsulfonyl)benzo[d]thiazole], the activity at 10 µM was over 401%.

Consider `Clc1ccc(-c2nc3cc(Br)ccc3o2)cc1` [Example 288, 5-bromo-2-(4-chlorophenyl)benzo[d]oxazole], for which the activity at 10 µM was over 401%.

As to `Nc1ccc2sc(-c3ccc(Cl)cc3)nc2c1` [Example 276, 2-(4-chlorophenyl)benzo[d]thiazol-5-amine], the activity at 10 µM was over 401%.

On to `CCCC(=O)Nc1ccc2oc(-c3ccc(Cl)cc3)nc2c1` [Example 99, N-(2-(4-chlorophenyl)benzo[d]oxazol-5-yl)butyramide], for which the activity at 10 µM is over 401%.

Consider `CCCC(=O)Nc1ccc2oc(Cc3ccccc3)nc2c1` [Example 227, N-(2-benzylbenzo[d]oxazol-5-yl)butyramide], for which the activity at 10 µM was under 200%.

For the molecule `Nc1ccc2oc(-c3ccc(C(F)(F)F)cc3)nc2c1` [Example 15, 2-(4-(trifluoromethyl)phenyl)benzo[d]oxazol-5-amine], the activity at 10 µM is under 200%.

Regarding `Nc1ccc2oc(-c3ccc4ccccc4n3)nc2c1` [Example 402, 2-(quinolin-2-yl)benzo[d]oxazol-5-amine], the activity at 10 µM fell in the range of 301 to 400%.

`O=C(Nc1ccc2oc(-c3cccnc3)nc2c1)c1cccnc1` [Example 81, N-(2-(pyridin-3-yl)benzo[d]oxazol-5-yl)nicotinamide]: the activity at 10 µM is under 200%.

As for `CCN(CC)c1ccc(-c2nc3cc(NC(=O)c4ccccc4OC)ccc3o2)cc1` [Example 66, N-(2-(4-(diethylamino)phenyl)benzo[d]oxazol-5-yl)-2-methoxybenzamide], the activity at 10 µM is under 200%.

With `CC(C)C(=O)Nc1ccc2oc(-c3cccc(C(F)(F)F)c3Cl)nc2c1` [Example 368, N-(2-(2-chloro-3-(trifluoromethyl)phenyl)benzo[d]oxazol-5-yl)isobutyramide], the activity at 10 µM is under 200%.

Turning to `Cc1ccc(-c2nc3cc(NC(=O)c4cccs4)ccc3o2)cc1` [Example 120, N-(2-p-tolylbenzo[d]oxazol-5-yl)thiophene-2-carboxamide], the activity at 10 µM was in the range of 201 to 300%.

Turning to `CCS(=O)(=O)c1ccc2oc(-c3cccc(Cl)c3)nc2c1` [Example 293, 2-(3-chlorophenyl)-5-(ethylsulfonyl)benzo[d]oxazole], the activity at 10 µM was over 401%.

For `O=C(Nc1ccc2oc(-c3ccc(Cl)cc3)nc2c1)c1ccccc1` [Example 88, N-(2-(4-chlorophenyl)benzo[d]oxazol-5-yl)benzamide], the activity at 10 µM is under 200%.

For `O=C(Nc1ccc2oc(-c3ccccc3)nc2c1)c1ccc(Cl)cc1` [Example 23, 4-chloro-N-(2-phenylbenzo[d]oxazol-5-yl)benzamide], the activity at 10 µM was under 200%.

Consider `CC(C)C(=O)Nc1ccc2oc(-c3cnc4ccccc4c3)nc2c1` [Example 415, N-(2-(quinolin-3-yl)benzo[d]oxazol-5-yl)isobutyramide], for which the activity at 10 µM is over 401%.

Still in this test, the particulars now being: luciferase level relative to control; H2K/mdx/Utro A reporter cells; compound 10 μM final concentration.
Turning to `CCN(CC)S(=O)(=O)c1ccc2oc(-c3ccc(Cl)cc3)nc2c1` [Example 439, 2-(4′-chlorophenyl)-5-(N,N-diethylsulfonamidyl)-benzoxazole], the Activity entry is “+ (Up to 200% relative to control)”.

The same test, now with this note: luciferase reporter assay in murine H2K cells; classified relative to control.
Turning to `O=C(Nc1ccc(-c2nc3ccccc3s2)cc1)C1CCCO1` (stereo not drawn) [Example 680], the Activity entry was “++ (Between 201% and 300% relative to control)”.

With `Nc1cccc(-c2nc3ccccc3s2)c1` [Example 602], the Activity result was “+++ (Between 301% and 400% relative to control)”.

Take `Fc1ccccc1-c1nc2ccccc2[nH]1` [Example 507]: the Activity entry is “++ (Between 201% and 300% relative to control)”.

Regarding `CC(=O)Nc1ccc(-c2nc3cc(C)cc(C)c3o2)cc1` [Example 529], the Activity result was “++ (Between 201% and 300% relative to control)”.

For `Nc1c(C(=O)Nc2ccc(F)cc2)sc2nc3c(cc12)CCC3` [Example 628], the Activity result is “++++ (Above 401% relative to control)”.

Consider `Nc1ccc2oc(-c3ccc(O)cc3)nc2c1` [Example 496], for which the Activity result was “++ (Between 201% and 300% relative to control)”.

For `CC(C)c1ccc2oc(-c3ccc(N)cc3O)nc2c1` [Example 565], the Activity result is “+++ (Between 301% and 400% relative to control)”.

For the molecule `CCC(=O)Nc1ccc(-c2nc3ccccc3s2)cc1` [Example 667], the Activity entry is “++ (Between 201% and 300% relative to control)”.

With `CC(=O)Nc1cccc(-c2ccc3oc(-c4ccc(Cl)cc4)nc3c2)c1` [Example 575], the Activity result is reported as “++++ (Above 401% relative to control)”.

On to `Clc1ccc(-c2nc3cc(CN4CCCCC4)ccc3o2)cc1` [Example 469], for which the Activity entry is recorded as “+ (Up to 200% relative to control)”.

Take `Cc1ccc2[nH]c(-c3ccc(N)cc3)nc2c1` [Example 532]: the Activity entry is given as “+ (Up to 200% relative to control)”.

In the case of `COc1ccc(-c2nc3ccc([N+](=O)[O-])cc3o2)cc1` [Example 584], the Activity result was “+++ (Between 301% and 400% relative to control)”.

As to `Nc1ccc2nc(-c3cccc(Cl)c3)oc2c1` [Example 598], the Activity result was “+++ (Between 301% and 400% relative to control)”.

Turning to `Cc1ccc2nc(NC(=O)c3ccco3)sc2c1` [Example 652], the Activity entry is “+++ (Between 301% and 400% relative to control)”.

Turning to `Cc1ccc2nc(-c3ccc(NC(=O)CSc4nnc[nH]4)cc3)sc2c1` [Example 654], the Activity entry was “+++ (Between 301% and 400% relative to control)”.

Take `Cc1ccc2nc(-c3ccc(N)cc3)oc2c1` [Example 506]: the Activity entry is “+ (Up to 200% relative to control)”.

For `Cc1ccc(C)c(OCc2nc3ccccc3[nH]2)c1` [Example 548], the Activity result is listed as “+ (Up to 200% relative to control)”.

As to `O=C(Nc1ccc(-c2nc3ccccc3s2)cc1)C1CC1` [Example 661], the Activity entry was “+++ (Between 301% and 400% relative to control)”.

For `O=C(Nc1cccc(-c2nc3ccccc3[nH]2)c1)c1cccs1` [Example 504], the Activity result is recorded as “+ (Up to 200% relative to control)”.
